Source: US20230348442A1, “GALECTIN-3 INHIBITING 2-HYDROXYCYCLOALKANE-1-CARBAMOYL DERIVATIVES” (Idorsia Pharmaceuticals Ltd, priority 2020, published 2023)

The molecules below were run against human Gal-3 (hGal-3) (Homo sapiens (Human), UniProt P17931) (assay: competitive binding assay: binding of biotinylated hGal-3 to microplate-adsorbed asialofetuin (ASF), spectrophotometric). Conditions: Activity on hGal-3; mean values of several measurements.
Summary of the method: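 Biotinylated hGal-3 (300-1000 ng/mL) bound to ASF-coated wells with serially diluted compound, 3 h at 4° C. After washing, bound protein was detected with streptavidin-peroxidase (80 ng/mL, 1 h, 4° C) and ABTS substrate; IC50 values are means of several measurements.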

Chain of human Gal-3 (hGal-3) (P17931 whole entry): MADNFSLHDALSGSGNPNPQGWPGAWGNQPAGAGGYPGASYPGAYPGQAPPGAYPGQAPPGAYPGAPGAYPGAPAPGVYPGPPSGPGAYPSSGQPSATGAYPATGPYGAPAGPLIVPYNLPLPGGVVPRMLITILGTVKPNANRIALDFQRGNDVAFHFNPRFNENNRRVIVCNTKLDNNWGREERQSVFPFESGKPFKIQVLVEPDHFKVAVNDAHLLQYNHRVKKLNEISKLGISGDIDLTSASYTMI

| SMILES | IC50 [µM] |
| --- | --- |
| CO[C@@H]1[C@@H](n2cc(-c3cc(F)c(Cl)c(Cl)c3)nn2)[C@@H](O)[C@@H](CO)O[C@H]1C(=O)N(c1cc(Cl)cc(C#N)c1)[C@H]1CC[C@@H]1O [Example 2.17.4, (2R,3R,4S,5R,6R)-N-(3-chloro-5-cyanophenyl)-4-(4-(3,4-dichloro-5-fluorophenyl)-1H-1,2,3-triazol-1-yl)-5-hydroxy-N-((1S,2S)-2-hydroxycyclobutyl)-6-(hydroxymethyl)-3-methoxytetrahydro-2H-pyran-2-carboxamide] | 0.0792 |
| CO[C@@H]1[C@@H](n2cc(-c3cc(F)cc(Cl)c3)nn2)[C@@H](O)[C@@H](CO)O[C@H]1C(=O)N(c1cc(Br)cc(C#N)c1)[C@H]1CC[C@@H]1O [Example 2.9.5, (2R,3R,4S,5R,6R)-N-(3-bromo-5-cyanophenyl)-4-(4-(3-chloro-5-fluorophenyl)-1H-1,2,3-triazol-1-yl)-5-hydroxy-N-((1S,2S)-2-hydroxycyclobutyl)-6-(hydroxymethyl)-3-methoxytetrahydro-2H-pyran-2-carboxamide] | 0.123 |
| CO[C@@H]1[C@@H](n2cc(-c3cc(F)c(C)c(F)c3)nn2)[C@@H](O)[C@@H](CO)O[C@H]1C(=O)N(c1cc(Br)cc(C#N)c1)[C@H]1CCC[C@@H]1O [Example 1.4.5, (2R,3R,4S,5R,6R)-N-(3-bromo-5-cyanophenyl)-4-(4-(3,5-difluoro-4-methylphenyl)-1H-1,2,3-triazol-1-yl)-5-hydroxy-N-((1S,2S)-2-hydroxycyclopentyl)-6-(hydroxymethyl)-3-methoxytetrahydro-2H-pyran-2-carboxamide] | 0.0169 |
| CO[C@@H]1[C@@H](n2cc(-c3ccc(Br)c(F)c3F)nn2)[C@@H](O)[C@@H](CO)O[C@H]1C(=O)N(c1cc(Cl)cc(Cl)c1)[C@H]1CCC[C@@H]1O [Example 1.12.2, (2R,3R,4S,5R,6R)-4-(4-(4-bromo-2,3-difluorophenyl)-1H-1,2,3-triazol-1-yl)-N-(3,5-dichlorophenyl)-5-hydroxy-N-((1S,2S)-2-hydroxycyclopentyl)-6-(hydroxymethyl)-3-methoxytetrahydro-2H-pyran-2-carboxamide] | 0.0237 |
| CO[C@@H]1[C@@H](n2cc(-c3cc(F)c(F)c(Cl)c3)nn2)[C@@H](O)[C@@H](CO)O[C@H]1C(=O)N(c1cc(Cl)cc(C#N)c1)[C@@H]1CC[C@H]1O [Example 2.7.4R, (2R,3R,4S,5R,6R)-4-(4-(3-chloro-4,5-difluorophenyl)-1H-1,2,3-triazol-1-yl)-N-(3-chloro-5-cyanophenyl)-5-hydroxy-N-((1R,2R)-2-hydroxycyclobutyl)-6-(hydroxymethyl)-3-methoxytetrahydro-2H-pyran-2-carboxamide] | 0.253 |
| CO[C@@H]1[C@@H](n2cc(-c3ccc(Br)c(F)c3F)nn2)[C@@H](O)[C@@H](CO)O[C@H]1C(=O)N(c1cc(F)cc(C#N)c1)[C@H]1CC[C@@H]1O [Example 2.12.7, (2R,3R,4S,5R,6R)-4-(4-(4-bromo-2,3-difluorophenyl)-1H-1,2,3-triazol-1-yl)-N-(3-cyano-5-fluorophenyl)-5-hydroxy-N-((1S,2S)-2-hydroxycyclobutyl)-6-(hydroxymethyl)-3-methoxytetrahydro-2H-pyran-2-carboxamide] | 0.048 |
| CO[C@@H]1[C@@H](n2cc(-c3cc(F)c(Cl)c(Cl)c3)nn2)[C@@H](O)[C@@H](CO)O[C@H]1C(=O)N(c1cc(Cl)cc(C#N)c1)[C@@H]1CC[C@H]1O [Example 2.17.4R, (2R,3R,4S,5R,6R)-N-(3-chloro-5-cyanophenyl)-4-(4-(3,4-dichloro-5-fluorophenyl)-1H-1,2,3-triazol-1-yl)-5-hydroxy-N-((1R,2R)-2-hydroxycyclobutyl)-6-(hydroxymethyl)-3-methoxytetrahydro-2H-pyran-2-carboxamide] | 0.224 |

Now from value to molecule:

| IC50 [µM] | SMILES |
| --- | --- |
| 1.03 | CO[C@@H]1[C@@H](n2cc(-c3cc(F)cc(Br)c3)nn2)[C@@H](O)[C@@H](CO)O[C@H]1C(=O)N(c1cc(F)cc(C#N)c1)[C@@H]1CCC[C@H]1O [Example 1.10.7R, (2R,3R,4S,5R,6R)-4-(4-(3-bromo-5-fluorophenyl)-1H-1,2,3-triazol-1-yl)-N-(3-cyano-5-fluorophenyl)-5-hydroxy-N-((1R,2R)-2-hydroxycyclopentyl)-6-(hydroxymethyl)-3-methoxytetrahydro-2H-pyran-2-carboxamide] |
| 0.191 | CO[C@@H]1[C@@H](n2cc(-c3cc(F)c(F)c(F)c3)nn2)[C@@H](O)[C@@H](CO)O[C@H]1C(=O)N(c1cc(Br)cc(C#N)c1)[C@@H]1CC[C@H]1O [Example 2.1.5R, (2R,3R,4S,5R,6R)-N-(3-bromo-5-cyanophenyl)-5-hydroxy-N-((1R,2R)-2-hydroxycyclobutyl)-6-(hydroxymethyl)-3-methoxy-4-(4-(3,4,5-trifluorophenyl)-1H-1,2,3-triazol-1-yl)tetrahydro-2H-pyran-2-carboxamide] |
| 0.108 | CO[C@@H]1[C@@H](n2cc(-c3cc(F)c(F)c(F)c3)nn2)[C@@H](O)[C@@H](CO)O[C@H]1C(=O)N(c1cccc(Br)c1)[C@H]1CC[C@@H]1O [Example 2.1.10, (2R,3R,4S,5R,6R)-N-(3-bromophenyl)-5-hydroxy-N-((1S,2S)-2-hydroxycyclobutyl)-6-(hydroxymethyl)-3-methoxy-4-(4-(3,4,5-trifluorophenyl)-1H-1,2,3-triazol-1-yl)tetrahydro-2H-pyran-2-carboxamide] |
| 0.0193 | Cc1c(F)cc(-c2cn([C@H]3[C@@H](O)[C@@H](CO)O[C@@H](C(=O)N(c4cc(Cl)cc(C#N)c4)[C@H]4CCC[C@@H]4O)[C@@H]3O)nn2)cc1F [Example 1H.4.4, (2R,3R,4S,5R,6R)-N-(3-chloro-5-cyanophenyl)-4-(4-(3,5-difluoro-4-methylphenyl)-1H-1,2,3-triazol-1-yl)-3,5-dihydroxy-N-((1S,2S)-2-hydroxycyclopentyl)-6-(hydroxymethyl)tetrahydro-2H-pyran-2-carboxamide] |
| 0.0788 | CO[C@@H]1[C@@H](n2cc(-c3cc(F)c(F)c(F)c3)nn2)[C@@H](O)[C@@H](CO)O[C@H]1C(=O)N(c1cc(Cl)cc(C#N)c1)[C@H]1CC[C@@H]1O [Example 2.1.4, (2R,3R,4S,5R,6R)-N-(3-chloro-5-cyanophenyl)-5-hydroxy-N-((1S,2S)-2-hydroxycyclobutyl)-6-(hydroxymethyl)-3-methoxy-4-(4-(3,4,5-trifluorophenyl)-1H-1,2,3-triazol-1-yl)tetrahydro-2H-pyran-2-carboxamide] |
| 0.0125 | CO[C@@H]1[C@@H](n2cc(-c3ccc(Cl)c(F)c3F)nn2)[C@@H](O)[C@@H](CO)O[C@H]1C(=O)N(c1cc(Cl)cc(C#N)c1)[C@H]1CCC[C@@H]1O [Example 1.14.4, (2R,3R,4S,5R,6R)-4-(4-(4-chloro-2,3-difluorophenyl)-1H-1,2,3-triazol-1-yl)-N-(3-chloro-5-cyanophenyl)-5-hydroxy-N-((1S,2S)-2-hydroxycyclopentyl)-6-(hydroxymethyl)-3-methoxytetrahydro-2H-pyran-2-carboxamide] |
| 0.0164 | CC(=O)O[C@@H]1[C@@H](n2cc(-c3cc(F)c(Cl)c(F)c3)nn2)[C@@H](O)[C@@H](CO)O[C@H]1C(=O)N(c1cc(Cl)cc(C#N)c1)[C@H]1CCC[C@@H]1O [Example 1A.5.4, (2R,3R,4S,5R,6R)-4-(4-(4-chloro-3,5-difluorophenyl)-1H-1,2,3-triazol-1-yl)-2-((3-chloro-5-cyanophenyl)((1S,2S)-2-hydroxycyclopentyl)carbamoyl)-5-hydroxy-6-(hydroxymethyl)tetrahydro-2H-pyran-3-yl acetate] |
